Source: patent US20240382600A1, “BIFUNCTIONAL DEGRADERS COMPRISING A TEAD BINDER” (Novartis AG, priority 2021, published 2024)

Key:
[1] = molecular target: Avi-humanTEAD4^217-434 / Cy5 labeled humanYAP^60-100 (Homo sapiens (Human), UniProt Q15561); test: In-vitro biochemical TR-FRET assay (TEAD4/YAP); assay type: binding; conditions: 1 h at room temperature
[2] = test system: YAP-dependent transcription in NCI-H2052 Tet-On shYAP_2371 pLenti6 MCAT_Luc cells; test: YAP reporter gene activity assay (MCAT-Luc), NCI-H2052; assay type: cell-based; conditions: Homo sapiens, 24 hrs
[3] = test system: YAP-dependent transcription in SF268-MCAT_Luc_dox-i-shYAPLevy (Clone 13) cells; test: YAP reporter gene activity assay (MCAT-Luc), SF268; assay type: cell-based; conditions: Homo sapiens, SF-268; SF268 MCAT_Luc, 24 hrs
[4] = test system: MKN-45/Ubc-luc cells (unspecific inhibition of luciferase expression or activity); test: Reporter gene assay specificity control (Ubc-Luc), MKN-45; assay type: cell-based; conditions: Homo sapiens; MKN-45/Ubc-luc specificity control, 24 hrs
Summary of the method: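 MKN-45 cells stably carrying a ubiquitin C promoter–firefly luciferase construct, treated the day after seeding with eleven 2-fold compound dilutions (0.1% DMSO final) for 24 hrs at 37° C. Luminescence read 5 min after Steady Glo addition; cell-free background subtracted, as a control for nonspecific luciferase inhibition.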

[5] = test system: NCI-H2052 Tet-On shYAP_2371 pLenti6 MCAT_Luc cells; test: Proliferation assay (resazurin/AlamarBlue), NCI-H2052; assay type: cell-based; conditions: Homo sapiens; NCI-H2052, 72 hours
[6] = test system: SF268-MCAT_Luc_dox-i-shYAPLevy (Clone 13) cells; test: Proliferation assay (resazurin/AlamarBlue), SF268; assay type: cell-based; conditions: Homo sapiens, SF-268; SF268, 72 hours
MKN-45/Ubc-luc cells = test: Proliferation assay (resazurin/AlamarBlue), MKN-45; assay type: cell-based; conditions: Homo sapiens; MKN-45, 72 hours
Summary of the method: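 MKN-45 cells carrying constitutive Ubc-driven luciferase reporter, treated the day after seeding with eleven 2-fold dilutions (0.1% DMSO) for 72 h at 37 °C. Viability by resazurin, referenced to day-0 plate; GI50 from % growth (100 none, 0 stasis, −100 kill) and residual viability at top concentration.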

[7] = molecular target: TEAD1-GFP in HEK293A cells (Homo sapiens (Human), UniProt P28347); test: TEAD1 protein abundance flow cytometry assay in HEK293A; assay type: cell-based; conditions: HEK293A TEAD1-GFP-CHYSEL-mCherry sensor cells, 24 h, GFP signal by flow cytometry
Method: Degradation of TEAD1 was measured in HEK293A cells (Invitrogen R70507) expressing TEAD1-GFP and mCherry from a stably integrated bicistronic TEAD1-GFP-CHYSEL-mCherry construct. Reduction of the GFP signal measured by flow cytometry served as readout for TEAD1 degradation after degrader treatment.
Stable HEK293A sensor cells were maintained in complete growth medium (DMEM high Glucose+10% FCS+1% L-Glutamine+1% NEAA+1% NaPyr.+4 μg/mL blasticidin) with passaging performed twice per week. On Day 0, stable HEK293A sensor cells were seeded at 5,000 cells/well in a 96-well microtiter plate in 100 μL complete medium. On Day 1, cells were treated in duplicate with 10-point 1:3 dilution series of compound using the HP D300 Digital Dispenser (Tecan). DMSO concentrations were normalized across the plate to 0.1%. On Day 2, after 24 h of incubation at 37° C., treatment media was discarded, cells rinsed with 100 μL/well PBS and then detached using 40 μL trypsin/well for 5 min. Trypsin was neutralized with 100 μL/well PBS+20% FCS).
Flow cytometry was performed on the samples using the CytoFlex S (Beckman Coulter). Cell identification was then performed using forward (FSC) vs. side scatter (SSC) plots. Single cell discrimination was performed using SSC-Width (SSC-W) vs. SSC-Height (SSCH) plots. Median GFP values for 2,500 single cells were used to determine TEAD1 levels. Median GFP values from HEK293A were used as a background signal and thus defining 0% TEAD1 signal. Median GFP values from DMSO treated HEK293A TEAD1-GFP CHYSEL-mCherry were used to define 100%
TEAD1 signal for subsequent DC50 curves (concentration at 50% TAED1 degradation). GFP and RFP were read in the channels called FITC and PE, respectively. Concentration response curves plotting relative reduction of the GFP signal (measured by flow cytometry) versus 10 compound concentrations (starting concentration 10 μM, 3 fold dilution steps) of the compounds allowed generation of DC50 values.

Sequence of Avi-humanTEAD4^217-434 / Cy5 labeled humanYAP^60-100 (Q15561 217-434): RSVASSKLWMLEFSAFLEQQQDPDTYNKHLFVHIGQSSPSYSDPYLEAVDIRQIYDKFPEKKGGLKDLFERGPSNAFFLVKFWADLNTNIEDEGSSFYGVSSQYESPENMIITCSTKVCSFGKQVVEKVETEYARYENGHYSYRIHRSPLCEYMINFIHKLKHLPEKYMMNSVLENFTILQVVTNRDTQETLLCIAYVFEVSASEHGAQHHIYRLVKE
Sequence of TEAD1-GFP in HEK293A cells (P28347 whole entry): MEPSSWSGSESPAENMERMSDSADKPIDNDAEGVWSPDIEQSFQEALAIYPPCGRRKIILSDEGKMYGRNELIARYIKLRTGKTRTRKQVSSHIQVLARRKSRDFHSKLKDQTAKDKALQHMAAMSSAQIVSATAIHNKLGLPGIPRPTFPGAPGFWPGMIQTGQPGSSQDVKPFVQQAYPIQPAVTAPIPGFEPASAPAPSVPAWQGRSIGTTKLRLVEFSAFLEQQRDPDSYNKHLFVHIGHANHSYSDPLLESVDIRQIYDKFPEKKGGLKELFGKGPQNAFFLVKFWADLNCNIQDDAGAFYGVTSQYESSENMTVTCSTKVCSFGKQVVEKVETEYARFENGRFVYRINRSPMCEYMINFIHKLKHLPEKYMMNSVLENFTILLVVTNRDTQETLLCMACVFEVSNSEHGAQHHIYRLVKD

IC50 [1]	IC50 [2]	IC50 [3]	IC50 [4]	GI50 [5]	GI50 (MKN-45/Ubc-luc cells)	DC50 [7]	Structure (SMILES)	GI50 [6]
< 1 nM	17 nM	2.6 nM	> 2000 nM	31 nM	1550 nM	3 nM	COc1ccc(C(N)=O)c(-c2c(Cl)c(F)cc3c2[C@H](C)[C@@](CN[C@H]2CC[C@H](C(=O)N4CCC(CC5CCN(CCn6cccc(CN7CCC(=O)NC7=O)c6=O)CC5)CC4)CC2)(c2ccccc2)O3)c1F (atropisomer, axis not shown) [Example 15, 2-((2S,3S,4S)-5-chloro-2-((((1r,4S)-4-(4-((1-(2-(3-((2,4-dioxotetrahydropyrimidin-1(2H)-yl)methyl)-2-oxopyridin-1(2H)-yl)ethyl)piperidin-4-yl)methyl)piperidine-1-carbonyl)cyclohexyl)amino)methyl)-6-fluoro-3-methyl-2-phenyl-2,3-dihydrobenzofuran-4-yl)-3-fluoro-4-methoxybenzamide]	85 nM
1.3 nM	14 nM	1.2 nM	> 2000 nM	52 nM	> 2000 nM	6 nM	COc1ccc(C(N)=O)c(-c2c(Cl)c(F)cc3c2[C@H](C)[C@@](CN[C@H]2CC[C@H](C(=O)N4CCC(CC5CCN(C(=O)Cn6cccc(CN7CCC(=O)NC7=O)c6=O)CC5)CC4)CC2)(c2ccccc2)O3)c1F (atropisomer, axis not shown) [Example 16, 2-((2S,3S,4S)-5-chloro-2-((((1r,4S)-4-(4-((1-(2-(3-((2,4-dioxotetrahydropyrimidin-1(2H)-yl)methyl)-2-oxopyridin-1(2H)-yl)acetyl)piperidin-4-yl)methyl)piperidine-1-carbonyl)cyclohexyl)amino)methyl)-6-fluoro-3-methyl-2-phenyl-2,3-dihydrobenzofuran-4-yl)-3-fluoro-4-methoxybenzamide]	64 nM
1 nM	15 nM	0.85 nM	> 2000 nM	62 nM	> 2000 nM	4 nM	COc1ccc(C(=O)N2CCC(CN3CCN(C(=O)[C@H]4CC[C@H](NC[C@]5(c6ccccc6)Oc6cc(F)c(Cl)c(-c7c(C(N)=O)ccc(OC)c7F)c6[C@@H]5C)CC4)CC3)CC2)cc1N1CCC(=O)NC1=O (atropisomer, axis not shown) [Example 17, 2-((2S,3S,4S)-5-chloro-2-((((1r,4S)-4-(4-((1-(3-(2,4-dioxotetrahydropyrimidin-1(2H)-yl)-4-methoxybenzoyl)piperidin-4-yl)methyl)piperazine-1-carbonyl)cyclohexyl)amino)methyl)-6-fluoro-3-methyl-2-phenyl-2,3-dihydrobenzofuran-4-yl)-3-fluoro-4-methoxybenzamide]	49 nM
2.1 nM	4.6 nM	0.41 nM	> 2000 nM	12 nM	> 2000 nM	0.5 nM	COc1ccc(C(N)=O)c(-c2c(Cl)c(F)cc3c2[C@H](C)[C@@](CN[C@H]2CC[C@H](C(=O)N4CCC(C5CCN(C(=O)COc6ccc(C)c(N7CCC(=O)NC7=O)c6)CC5)CC4)CC2)(c2ccccc2)O3)c1F (atropisomer, axis not shown) [Example 19, 2-((2S,3S,4S)-5-chloro-2-((((1r,4S)-4-(1′-(2-(3-(2,4-dioxotetrahydropyrimidin-1(2H)-yl)-4-methylphenoxy)acetyl)-[4,4′-bipiperidine]-1-carbonyl)cyclohexyl)amino)methyl)-6-fluoro-3-methyl-2-phenyl-2,3-dihydrobenzofuran-4-yl)-3-fluoro-4-methoxybenzamide]	29 nM
1.4 nM	3.9 nM	0.22 nM	> 20000 nM	19 nM	> 20000 nM	0.4 nM	COc1ccc(C(N)=O)c(-c2c(Cl)c(F)cc3c2[C@H](C)[C@@](CN[C@H]2CC[C@H](C(=O)N4CCC(OC5CCN(C(=O)COc6ccc(C)c(N7CCC(=O)NC7=O)c6)CC5)CC4)CC2)(c2ccccc2)O3)c1F (atropisomer, axis not shown) [Example 20, 2-((2S,3S,4S)-5-chloro-2-((((1r,4S)-4-(4-((1-(2-(3-(2,4-dioxotetrahydropyrimidin-1(2H)-yl)-4-methylphenoxy)acetyl)piperidin-4-yl)oxy)piperidine-1-carbonyl)cyclohexyl)amino)methyl)-6-fluoro-3-methyl-2-phenyl-2,3-dihydrobenzofuran-4-yl)-3-fluoro-4-methoxybenzamide]	18 nM
1.6 nM	1.4 nM	0.3 nM	> 2000 nM	4.3 nM	> 2000 nM	0.3 nM	COc1ccc(C(N)=O)c(-c2c(Cl)c(F)cc3c2[C@H](C)[C@@](CN[C@H]2CC[C@H](C(=O)N4CCC(CC5CCN(C(=O)COc6ccc(C)c(N7CCC(=O)NC7=O)c6)CC5)CC4)CC2)(c2ccccc2)O3)c1F (atropisomer, axis not shown) [Example 21, 2-((2S,3S,4S)-5-chloro-2-((((1r,4S)-4-(4-((1-(2-(3-(2,4-dioxotetrahydropyrimidin-1(2H)-yl)-4-methylphenoxy)acetyl)piperidin-4-yl)methyl)piperidine-1-carbonyl)cyclohexyl)amino)methyl)-6-fluoro-3-methyl-2-phenyl-2,3-dihydrobenzofuran-4-yl)-3-fluoro-4-methoxybenzamide]	9.4 nM
1 nM	2 nM	0.18 nM	> 2000 nM	9.5 nM	> 2000 nM	0.4 nM	COc1ccc(C(N)=O)c(-c2c(Cl)c(F)cc3c2[C@H](C)[C@@](CN[C@H]2CC[C@H](C(=O)N4CCN(CC5CCN(C(=O)COc6ccc(C)c(N7CCC(=O)NC7=O)c6)CC5)CC4)CC2)(c2ccccc2)O3)c1F (atropisomer, axis not shown) [Example 22, 2-((2S,3S,4S)-5-chloro-2-((((1r,4S)-4-(4-((1-(2-(3-(2,4-dioxotetrahydropyrimidin-1(2H)-yl)-4-methylphenoxy)acetyl)piperidin-4-yl)methyl)piperazine-1-carbonyl)cyclohexyl)amino)methyl)-6-fluoro-3-methyl-2-phenyl-2,3-dihydrobenzofuran-4-yl)-3-fluoro-4-methoxybenzamide]	9.5 nM
< 1 nM	13 nM	1.4 nM	> 2000 nM	35 nM	> 2000 nM	3 nM	COc1ccc(C(N)=O)c(-c2c(Cl)c(F)cc3c2[C@H](C)[C@@](CN[C@H]2CC[C@H](C(=O)NCCCCCCCNC(=O)COc4ccc(C)c(N5CCC(=O)NC5=O)c4)CC2)(c2ccccc2)O3)c1F (atropisomer, axis not shown) [Example 23, 2-((2S,3S,4S)-5-chloro-2-((((1r,4S)-4-((7-(2-(3-(2,4-dioxotetrahydropyrimidin-1(2H)-yl)-4-methylphenoxy)acetamido)heptyl)carbamoyl)cyclohexyl)amino)methyl)-6-fluoro-3-methyl-2-phenyl-2,3-dihydrobenzofuran-4-yl)-3-fluoro-4-methoxybenzamide]	74 nM
